Series [1] deals with MelJuso (HRASG13D and NRASQ61L). Briefly: Cell viability screen, CellTiter-Glo, 72 h. The series is classed as cell-based, human. The conditions noted are these: ATP content/viability. On the procedure:
Figure 1: Optimization of Potency and Drug Properties of Small Molecule Inhibitors of Ras- and Raf-mutant Cells using Viability Screens. (A) Cell viability screen of ~300 small molecules in A549 (KRASG12S), LOX IMVI (BRAFV600E), and MelJuso (HRASG13D and NRASQ61L). Cells were treated with vehicle DMSO or increasing concentrations of small molecules in triplicate for 72 h and ATP content/viability was measured using CellTiter-Glo Luminescent Cell Viability Assay. The results shown for all cell viability figures are representative of at least two independent experiments. […] (C) Evolution of the Structure Activity Relationship (SAR) and IC50s of the first (68) and last (249C | lead due to drug-like properties) compounds in the screen. (D) 249C sensitivity for a panel of 53 cancer cell lines (including lung, pancreatic, breast, ovarian, hematological/liver, prostate, colorectal cancers, glioma and melanoma). […] (F) Quantitative whole proteome analysis of the effects of small molecule treatment by mass spectrometry. A549 cells were treated with DMSO or 68 (30 μM), 226C (1μM) or 249C (1μM) for 48 h prior to analysis of proteomes with TMT labeling followed by quantification relative to the DMSO control. […]
On the technique in general: ATP-based viability assays read luminescence as a measure of living cells.

In series [2] the target is T1, mammalian V-ATPase purified from pig kidneys (Sus scrofa, UniProt Q9TVC1).
T1 construct: the entire V-ATPase complex (800 kDa) was purified as described previously from porcine kidneys; from tissue; host or cells: porcine kidney
Briefly: Biochemical V-ATPase (ATP hydrolysis) assay. The conditions noted are these: concentrations as low as 1 μM. The method, then: V-ATPase was purified as described previously from yeast[82] using the detergent dodecylmaltoside and porcine kidney[83] using the detergent glycol-diosgenin. ATPase assays with purified V-ATPase were performed as described previously. 249C (mammalian: 0.1, 1, 10, 100 μM and yeast: 5, 10 and 100 μM) or BafA1 (1 μM) were added to the reaction and compared with a negative control to which only DMSO was added. Enzyme-coupled ATPase biochemical activity assays were performed in a 96-well plate as described previously.

A short description of series [3]: Plasma concentration in mice. The series is classed as in vivo. The settings on record: female, athymic nude (NU/NU, Charles River strain # 088), mouse, intraperitoneal, 10 mg/kg, after 4 hours, read-out: maximum concentration (Cmax) in blood (or plasma). On the procedure:
5 × 10^6 A549 cells were subcutaneously injected into the lower left flank of 6–8-week old athymic nude female mice (Charles River strain # 088, homozygous NU/NU). To assess establishment of tumors, mice were examined 5 days post-inoculation and were randomly segregated into two treatment groups [vehicle control, 10 mg/kg 249C IP, n = 7 per group] and were treated twice daily with the drug in NPM or vehicle control (5% weight aqueous solution of carboxymethyl cellulose). Tumor volumes were calculated using the formula (L × W × H)/2 with recorded caliper measurements. Survival curves and statistical analyses were performed using Excel. Animals were maintained on a standard chow diet; 12:12 dark/light cycle and in group housing in hepa-filtered cages. All animal procedures were performed under IACUC approved protocols and guidelines. Animals from both groups were weighed every 3 days. Plasma concentration was measured from blood collected using standard and established protocols.

The next series concerns 468 human kinases. Briefly: KINOMEscan profiling. The settings on record: 249C at 10,000 nM. The series is classed as binding. The source says:
The KINOMEscan™ Profiling Service consisting of 468 human kinases was used to assess 249C inhibitor activity to check for off-target effects as previously described.
Supplementary Fi g u re 12: Compound 249C assessed for off-target effects using the KIN OME scanTM screening platform. (A) Selectivity (S-score) for 249C wher e the sco re is a qu antitative measu re o f compound selectivity against human kinases. It is calculate b y dividing the number of k inases that compounds bi nd to b y the total number of distinct kinases tested, excluding mutant variants (S = number of hits / number of assa ys). 1 hit out of >400 kinases is reported for test compound (249C) = 0.002. S(35) = number of non- mutant kinases with % ctrl <35/number of non- mutant kinases; (B) Kinome interaction map for 249C at 10,000 nM. Each red dot indicates a kinase found to bind, where larger dots indicate higher affinit y interactions.
1 Tyrosine Kinase (TK) out of >400 kinases ( created in TREEspotTM ) with low affinity. This is calculated using
Dissociation constants (Kds) were determined using 249C at 30,000 nM, Hill slopes were set to - 1 and curves were fitted using a non- linear least square fit with the […]
(1 picture or pasted object on this page, not shown here)

The target in a further series is hERG (Homo sapiens, UniProt Q12809). Briefly: hERG fluorescence polarization assay. The settings on record: human.
A further series deals with MEFs KRAS G12V. Briefly: Cell proliferation of Ras-less MEFs expressing human KRAS/BRAF. The settings on record: Mus musculus.
The next series relates to MEFs KRAS G12C. Described as above. The settings on record: Mus musculus.
The next series has as its system MEFs KRAS Q61R. The series is described as above. The settings on record: Mus musculus.

By IC50 is commonly meant the concentration that gives 50% inhibition. Low values mean higher potency, high ones lower potency. A word on the inhibition: it is how much of the control response was suppressed. A low value points to little suppression.

Structures are written as SMILES.

Sequence of hERG (Q12809 whole entry): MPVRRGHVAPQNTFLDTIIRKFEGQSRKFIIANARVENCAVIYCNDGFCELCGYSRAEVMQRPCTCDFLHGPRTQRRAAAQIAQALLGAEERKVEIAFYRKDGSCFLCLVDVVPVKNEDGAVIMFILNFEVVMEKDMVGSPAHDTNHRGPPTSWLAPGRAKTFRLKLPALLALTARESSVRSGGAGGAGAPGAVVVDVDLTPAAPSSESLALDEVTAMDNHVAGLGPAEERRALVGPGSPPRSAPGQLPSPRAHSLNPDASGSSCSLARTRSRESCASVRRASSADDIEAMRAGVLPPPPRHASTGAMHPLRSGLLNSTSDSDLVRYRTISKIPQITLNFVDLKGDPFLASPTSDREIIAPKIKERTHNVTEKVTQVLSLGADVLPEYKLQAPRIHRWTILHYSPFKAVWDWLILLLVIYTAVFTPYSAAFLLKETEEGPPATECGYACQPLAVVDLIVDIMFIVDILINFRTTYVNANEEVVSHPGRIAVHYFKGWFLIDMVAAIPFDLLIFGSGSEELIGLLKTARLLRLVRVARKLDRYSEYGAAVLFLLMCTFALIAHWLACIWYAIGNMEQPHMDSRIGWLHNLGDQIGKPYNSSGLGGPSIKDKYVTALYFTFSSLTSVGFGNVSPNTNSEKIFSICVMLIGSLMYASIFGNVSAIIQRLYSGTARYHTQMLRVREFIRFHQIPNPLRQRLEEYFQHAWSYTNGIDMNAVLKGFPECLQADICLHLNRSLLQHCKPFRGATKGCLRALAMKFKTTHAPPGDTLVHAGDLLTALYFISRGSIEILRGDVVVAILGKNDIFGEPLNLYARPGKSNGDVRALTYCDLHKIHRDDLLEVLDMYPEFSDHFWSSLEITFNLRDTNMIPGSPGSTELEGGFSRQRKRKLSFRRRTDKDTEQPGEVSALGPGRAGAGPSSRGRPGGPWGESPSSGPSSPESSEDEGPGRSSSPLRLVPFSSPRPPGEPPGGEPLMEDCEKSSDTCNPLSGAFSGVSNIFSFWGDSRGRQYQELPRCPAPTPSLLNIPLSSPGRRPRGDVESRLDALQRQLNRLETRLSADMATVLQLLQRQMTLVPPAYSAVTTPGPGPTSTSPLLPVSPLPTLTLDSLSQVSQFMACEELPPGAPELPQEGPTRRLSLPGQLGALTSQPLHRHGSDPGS
T1 sequence (Q9TVC1 whole entry): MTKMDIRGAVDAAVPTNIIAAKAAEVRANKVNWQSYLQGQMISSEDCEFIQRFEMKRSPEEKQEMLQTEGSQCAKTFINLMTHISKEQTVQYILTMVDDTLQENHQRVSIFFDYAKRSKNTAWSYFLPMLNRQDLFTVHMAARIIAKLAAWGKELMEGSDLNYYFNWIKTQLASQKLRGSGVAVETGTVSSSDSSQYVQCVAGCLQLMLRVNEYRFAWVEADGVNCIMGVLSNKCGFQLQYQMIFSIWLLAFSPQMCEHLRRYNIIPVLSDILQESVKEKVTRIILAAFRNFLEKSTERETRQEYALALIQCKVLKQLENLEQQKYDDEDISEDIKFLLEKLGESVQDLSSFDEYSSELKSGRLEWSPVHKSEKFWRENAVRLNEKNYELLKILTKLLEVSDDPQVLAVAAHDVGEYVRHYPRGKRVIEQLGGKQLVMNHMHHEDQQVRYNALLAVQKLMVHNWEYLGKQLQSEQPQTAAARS
T1 sequence (Q29048 whole entry partner): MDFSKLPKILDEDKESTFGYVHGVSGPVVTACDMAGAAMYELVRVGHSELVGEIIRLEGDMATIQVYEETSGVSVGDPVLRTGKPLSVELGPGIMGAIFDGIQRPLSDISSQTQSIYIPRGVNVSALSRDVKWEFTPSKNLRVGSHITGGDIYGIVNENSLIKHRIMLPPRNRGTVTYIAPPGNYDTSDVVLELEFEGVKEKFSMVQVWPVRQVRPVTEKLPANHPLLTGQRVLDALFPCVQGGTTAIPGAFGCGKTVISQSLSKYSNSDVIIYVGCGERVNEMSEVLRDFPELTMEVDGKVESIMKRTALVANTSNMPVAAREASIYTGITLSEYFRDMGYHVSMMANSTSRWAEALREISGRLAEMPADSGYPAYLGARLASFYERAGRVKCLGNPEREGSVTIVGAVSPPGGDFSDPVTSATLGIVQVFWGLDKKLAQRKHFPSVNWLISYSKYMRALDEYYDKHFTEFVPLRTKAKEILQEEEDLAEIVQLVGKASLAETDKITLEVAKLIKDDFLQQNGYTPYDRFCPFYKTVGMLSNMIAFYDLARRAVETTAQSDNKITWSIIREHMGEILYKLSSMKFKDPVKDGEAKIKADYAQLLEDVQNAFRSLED
Method for MEFs KRAS G12C: (§1) Logarithmically growing cells were plated in antibiotic-free medium supplemented with 2% fetal bovine serum at a density of 5,000 cells per well. The next day, cells were treated in triplicates with increasing doses of in-house small molecule inhibitor drugs and a DMSO vehicle control for 3 days and subsequently assessed for cell viability by measurement of ATP with CellTiter-Glo Luminescent Cell Viability Assay (Promega). Signal intensity was read on a Glomax™ 96 Microplate Luminometer (Promega) with GLOMAX software (version 1.9.3) and percent cell survival was calculated based on the reading of vehicle control cells set as 100% using Excel (2012) and GraphPad Prism (version 6)Each compound was tested a minimum of 2 times with n = 3. All cell proliferation assays (cancer cell lines or MEFs) were done in a similar way.
Method for MEFs KRAS G12V: Cell proliferation assays of stable cell lines treated with V-ATPase inhibitors 249C and BafA1, HCQ analog (DC661), KRASG12C inhibitor (AMG510) and autophagy inducer (CMA). For each bar, n = 3. Representative of 3 biological replicates (mean ± SD). Two-sided t-test with no adjustments for multiple comparisons.
as §1
Method for MEFs KRAS Q61R: as §1

As for `CN1CCOC(CNC(=O)C2(C)C(c3ccc(Cl)o3)C(c3ccc(F)cc3F)=NN2c2ccc(F)cc2F)C1` (stereo not drawn) [Compound 249C], the half-maximal inhibitory concentration (IC50) in series [1] (listed as 002-249C) stood at 21.9 nM; in series [1] (Homo sapiens, MEL-JUSO), 22 nM; with MEFs KRAS G12V, 150 nM; in the series with MEFs KRAS G12C, 440 nM; in the series with MEFs KRAS Q61R, 550 nM. Besides, the “ATP hydrolysis of intact mammalian V-ATPase” value in series [2] is “blocked ATP hydrolysis”. Also, the Cmax in series [3] is 20 µM. Also, the “number of kinases found to bind out of >400 kinases” value in the series on 468 human kinases is listed as 1. Also, at 30 µM the inhibition at hERG was 0%.

For the origin of these results see PMC9750872, “Ras-mutant cancers are sensitive to small molecule inhibition of V-type ATPases in mice” (Nature biotechnology, 2022).
